Experimental data: patent publication US11649242B2, “Pyrrolopyrrole compositions as pyruvate kinase (PKR) activators” (FORMA Therapeutics, Inc., priority 2017, dated 2023)

Target: PKR(wt) (Homo sapiens, UniProt P30613)
Assay: Luminescence Assay Protocol (Kinase Glo Plus), PKR(Wt/without FBP)
Format: biochemical
Conditions: without FBP; for activation at 1.54 µM: compound 1.54 μM, read-out: I - AC50 LUM KGP woFBP % Fold @ 1.54 μM mean; for AC50: gmean, read-out: G - AC50 LUM KGP woFBP AC50 μM gmean; for Emax: highest % fold increase at any concentration, read-out: H - AC50 LUM KGP woFBP MAX % FOLD mean
Description: Example 47: PKR(Wt/without FBP), PKR(G332S/with FBP), PKR(R510Q/without FBP)
The phosphorylation of Adenosine-5′-diphosphate (ADP) by various mutants of PKR was determined by the Kinase Glo Plus Assay (Promega) in the presence or absence of FBP [D-Fructose-1,6-diphosphate; BOC Sciences, CAS: 81028-91-3] as follows. Unless otherwise indicated, all reagents were purchased from Sigma-Aldrich. All reagents were prepared in buffer containing 50 mM Tris-HCl, 100 mM KCl, 5 mM MgCl2, and 0.01% Triton X100, 0.03% BSA, and 1 mM DTT. Enzyme and PEP [Phospho(enol) pyruvic acid] were added at 2× to all wells of an assay-ready plate containing serial dilutions of test compounds or DMSO vehicle. Final enzyme concentrations for PKR(wt), PKR(R510Q), and PKR(G332S) were 0.8 nM, 0.8 nM, and 10 nM respectively. Final PEP concentration was 100 μM. The Enzyme/PEP mixture was incubated with compounds for 30 minutes at RT before the assay was initiated with the addition of 2×ADP [Adenosine-5′-diphosphate] and KinaseGloPlus. Final concentration of ADP was 100 μM. […] For assays containing FBP, that reagent is added at 30 μM upon reaction initiation. Reactions were allowed to progress for 45 minutes at RT until luminescence was recorded by the BMG PHERAstar FS Multilabel Reader. All compounds were tested in triplicate at concentrations ranging from 42.5 μM to 2.2 nM in 0.83% DMSO.
Luminescence values were converted to % Fold increase by normalizing to the average of the DMSO control and multiplying by 100. Max, min, slope and AC50 were determined by the standard four parameter fit algorithm of ActivityBase XE Runner. Compounds were evaluated with three parameters—AC50, MAX % Fold, and % Fold@1.54 μM (FIG. 1). The AC50 value for a compound is the concentration […] corresponding to the midway between the maximum and minimum values of the four parameter logistic curve fit (i.e., at which the % fold increase along the four parameter logistic curve fit is halfway between MAX % Fold and MIN % Fold (% Fold Midpoint)), MAX % Fold is the highest fold increase observed at any concentration of compound, and % Fold@1.54 μM is the fold increase at a compound concentration of 1.54 μM. The parameter % Fold@1.54 μM was selected to capture elements of both the AC50 and MAX % Fold and to provide a ranking based on both potency and effect. The compound concentration of 1.54 μM was chosen as one that can optimally differentiate the set of compounds based on the range of activities observed.
As set forth in Tables 6 and 7 below, AC50 values (columns A, D, G) are defined as follows: ≤0.1 μM (+++); >0.1 μM and ≤1.0 μM (++); >1.0 μM and ≤40 μM (+); >40 μM (0). Max % FOLD values (columns B, E, H) are defined as follows: ≤75% (+); >75% and ≤250% (++); >250% and ≤500% (+++). % Fold@1.54 μM values (columns C, F, I) are defined as follows: ≤75% (+); >75% and ≤250% (++); >250% and ≤500% (+++).

PKR(wt), sequence (P30613 whole entry): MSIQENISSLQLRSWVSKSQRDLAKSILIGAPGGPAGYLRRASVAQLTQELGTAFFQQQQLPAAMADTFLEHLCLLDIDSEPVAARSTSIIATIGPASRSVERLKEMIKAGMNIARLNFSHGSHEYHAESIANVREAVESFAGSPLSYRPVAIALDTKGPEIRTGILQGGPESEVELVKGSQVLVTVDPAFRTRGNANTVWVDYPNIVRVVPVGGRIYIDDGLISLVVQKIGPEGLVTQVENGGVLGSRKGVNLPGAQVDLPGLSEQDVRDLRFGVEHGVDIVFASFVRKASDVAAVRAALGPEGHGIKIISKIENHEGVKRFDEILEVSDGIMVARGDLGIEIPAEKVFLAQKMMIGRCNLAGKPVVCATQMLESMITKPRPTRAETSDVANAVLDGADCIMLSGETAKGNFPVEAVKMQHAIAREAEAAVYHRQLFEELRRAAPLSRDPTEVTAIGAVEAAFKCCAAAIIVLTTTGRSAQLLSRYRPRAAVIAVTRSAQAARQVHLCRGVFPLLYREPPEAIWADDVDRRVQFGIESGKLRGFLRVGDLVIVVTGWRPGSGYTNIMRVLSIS

## Cc1nc2ccc(S(=O)(=O)N3CC4=C(CN(C(=O)C(C)(C)CO)C4)C3)cc2o1 [Example 21, 3-hydroxy-2,2-dimethyl-1-(5-((2-methylbenzo[d]oxazol-6-yl)sulfonyl)-3,4,5,6-tetrahydropyrrolo[3,4-c]pyrrol-2(1H)-yl)propan-1-one]
  activation at 1.54 µM: 75 to 250%
  AC50: 1 to 40 µM
  Emax: 75 to 250%

## COCC1(C(=O)N2CC3=C(C2)CN(S(=O)(=O)c2ccc4occc4c2)C3)CC1 [Example 17, (5-(benzofuran-5-ylsulfonyl)-3,4,5,6-tetrahydropyrrolo[3,4-c]pyrrol-2(1H)-yl)(1-(methoxymethyl)cyclopropyl)methanone]
  activation at 1.54 µM: 75 to 250%
  AC50: 0.1 to 1 µM
  Emax: 75 to 250%

## CC(C)(CO)C(=O)N1CC2=C(C1)CN(S(=O)(=O)c1ccc3occc3c1)C2 [Example 9, 1-(5-(benzofuran-5-ylsulfonyl)-3,4,5,6-tetrahydropyrrolo[3,4-c]pyrrol-2(1H)-yl)-3-hydroxy-2,2-dimethylpropan-1-one]
  activation at 1.54 µM: 75 to 250%
  AC50: ≤ 0.1 µM
  Emax: 75 to 250%

## O=C([C@H]1CCOC1)N1CC2=C(C1)CN(S(=O)(=O)c1ccc3occc3c1)C2 [Example 13, (S)-(5-(benzofuran-5-ylsulfonyl)-3,4,5,6-tetrahydropyrrolo[3,4-c]pyrrol-2(1H)-yl)(tetrahydrofuran-3-yl)methanone]
  activation at 1.54 µM: 75 to 250%
  AC50: 0.1 to 1 µM
  Emax: 250 to 500%

## C[C@H](O)CC(=O)N1CC2=C(C1)CN(S(=O)(=O)c1ccc3occc3c1)C2 [Example 24, (S)-1-(5-(benzofuran-5-ylsulfonyl)-3,4,5,6-tetrahydropyrrolo[3,4-c]pyrrol-2(1H)-yl)-3-hydroxybutan-1-one]
  activation at 1.54 µM: 75 to 250%
  AC50: 0.1 to 1 µM
  Emax: 250 to 500%

## O=C(CCO)N1CC2=C(C1)CN(S(=O)(=O)c1ccc3occc3c1)C2 [Example 22, 1-(5-(benzofuran-5-ylsulfonyl)-3,4,5,6-tetrahydropyrrolo[3,4-c]pyrrol-2(1H)-yl)-3-hydroxypropan-1-one]
  activation at 1.54 µM: 250 to 500%
  AC50: 0.1 to 1 µM
  Emax: 250 to 500%

## CCC(CO)(CO)C(=O)N1CC2=C(C1)CN(S(=O)(=O)c1ccc3occc3c1)C2 [Example 11, 1-(5-(benzofuran-5-ylsulfonyl)-3,4,5,6-tetrahydropyrrolo[3,4-c]pyrrol-2(1H)-yl)-2,2-bis(hydroxymethyl)butan-1-one]
  activation at 1.54 µM: 75 to 250%
  AC50: 0.1 to 1 µM
  Emax: 250 to 500%

## O=C(C(CO)c1ccccc1)N1CC2=C(C1)CN(S(=O)(=O)c1ccc3occc3c1)C2 (stereo not drawn) [Example 8, 1-(5-(benzofuran-5-ylsulfonyl)-3,4,5,6-tetrahydropyrrolo[3,4-c]pyrrol-2(1H)-yl)-3-hydroxy-2-phenylpropan-1-one]
  activation at 1.54 µM: 250 to 500%
  AC50: ≤ 0.1 µM
  Emax: 250 to 500%

## CC(CO)(CO)C(=O)N1CC2=C(C1)CN(S(=O)(=O)c1ccc3occc3c1)C2 [Example 10, 1-(5-(benzofuran-5-ylsulfonyl)-3,4,5,6-tetrahydropyrrolo[3,4-c]pyrrol-2(1H)-yl)-3-hydroxy-2-(hydroxymethyl)-2-methylpropan-1-one]
  activation at 1.54 µM: 75 to 250%
  AC50: ≤ 0.1 µM
  Emax: 250 to 500%

## CC(C)(O)CC(=O)N1CC2=C(C1)CN(S(=O)(=O)c1ccc3occc3c1)C2 [Example 25, 1-(5-(benzofuran-5-ylsulfonyl)-3,4,5,6-tetrahydropyrrolo[3,4-c]pyrrol-2(1H)-yl)-3-hydroxy-3-methylbutan-1-one]
  activation at 1.54 µM: 75 to 250%
  AC50: 0.1 to 1 µM
  Emax: 250 to 500%

## C[C@@H](O)CC(=O)N1CC2=C(C1)CN(S(=O)(=O)c1ccc3occc3c1)C2 [Example 23, (R)-1-(5-(benzofuran-5-ylsulfonyl)-3,4,5,6-tetrahydropyrrolo[3,4-c]pyrrol-2(1H)-yl)-3-hydroxybutan-1-one]
  activation at 1.54 µM: 250 to 500%
  AC50: 0.1 to 1 µM
  Emax: 250 to 500%
